Experimental data as given in patent US20190290729A1, “PHARMACEUTICAL ASSOCIATION OF GROWTH FACTOR RECEPTOR AGONIST AND ADHESION PROTEIN INHIBITOR FOR CONVERTING A NEOPLASTIC CELL INTO A NON-NEOPLASTIC CELL AND USES THEREOF” (HISTIDE AG, priority 2015, published 2019).
Where no end group is shown, it is not given here.

Assays:
[1] = test system: MG63 cells; assay: pRB phosphorylation level, immunofluorescence staining quantified with ImageJ, osteosarcoma cells; assay type: cell-based, human; settings: for pRB: Table 9, in association with SiRNA Integrin alpha 3+SiRNA Integrin beta 1 (SEQ ID NO: 141 to 163)
Procedure: (§1) The following starting materials and reagents were used: • Type-I collagen sponge was obtained from Sigma®. • PBS 1× was obtained from Gibco®. • MilliQ water: is water characterised in terms of resistivity (typically 18.2 MΩ·cm at 25° C.). • Low glucose Dulbecco's Modified Eagle Medium (DMEM) was obtained from Invitrogen® • Minimum Essential Medium Eagle without ascorbic acid (αMEM) was obtained from Invitrogen®. • All of the cell culture experiments were carried out without any serum in the medium for the first 8 hours of culture. • Osteosarcoma cells: MG63 cells were obtained from ATCC®. These cells were cultured in DMEM (Eagle's Minimum Essential Medium) medium supplemented with 10% fetal calf serum (FCS) and 1% penicillin/streptomycin. All cells were used at a low passage number (passage 10), were subconfluently cultured and were seeded at 10^4 cells/cm^2 for the purpose of the experiments. • Chondrosarcoma cells Hs819.T cells were obtained from ATCC®. These cells were cultured in DMEM (Eagle's Minimum Essential Medium) medium supplemented with 10% fetal calf serum (FCS) and 1% penicillin/streptomycin. All cells were used at a low passage number (passage 10), were subconfluently cultured and were seeded at 10^4 cells/cm^2 for the purpose of the experiments. • Rhabdomyosarcoma cells: A-673 cells were obtained from ATCC®. These cells were cultured in DMEM (Eagle's Minimum Essential Medium) medium supplemented with 10% fetal calf serum (FCS) and 1% penicillin/streptomycin. All cells were used at a low passage number (passage 10), were subconfluently cultured and were seeded at 10^4 cells/cm^2 for the purpose of the experiments. • Adenocarcinoma cells: HCC4006 cells were obtained from ATCC®. These cells were cultured in RPMI-1640 medium (obtained from ATCC®) supplemented with 10% fetal calf serum (FCS) and 1% penicillin/streptomycin. All cells were used at a low passage number (passage 10), were subconfluently cultured and were seeded at 10^4 cells/cm^2 for the purpose of the experiments. • CMFDA is a Cell Tracker Green obtained from Invitrogen®. • DAPI was obtained from Sigma®. • Fetal bovine serum (FBS) was obtained from Gibco®. • Penicillin/streptomycin was obtained from Invitrogen®. • The AlamarBlue® assay was obtained from Molecular Probes®. • Anti phospho-p53 antibody was obtained from Santa Cruz Biotechnology®, • Anti pRB antibody was obtained from Santa Cruz Biotechnology®, • Monoclonal anti-integrin (extracellular domain) αv, α5, α3, α4, β1, β3, β5 and β9 antibodies were obtained from Santa Cruz Biotechnology®, • Cell cytoskeletal filamentous actin (F-actin) was visualized by Alexa Fluor® 488 phalloidin Sigma® labeling. • Monoclonal anti-vinculin antibody (clone hVIN-1, produced in mouse) was obtained from Sigma®.
(§2) • All of the peptides were synthetized using conventional solution and/or solid phase peptide synthesis methods. • All of the experiments were performed with a concentration of 400 ng/mL of GFR-binding compound(s) as defined herein. • All cell culture experiments were performed with cultures on plastic coated with type-I collagen in order to mimic the physiological conditions of the human body. • The compositions of pharmaceutical compositions used in the examples below are summarized in the following table:
(§3) The cells were first fixed for 20 min with 4% paraformaldehyde/PBS at 4° C. After fixation, the cells were permeabilized in PBS containing 1% Triton X-100 for 15 min. Protein immunofluorescent visualization was performed by first treating the cells with 1% (v/v) specific monoclonal antibodies for 1 hour at 37° C. Then the samples were incubated with Alexa Fluor® 568 or 647 (F(ab′)2 fragment of IgG(H+L)) during 30 min at room temperature. The cell nuclei were counterstained in 20 ng/mL DAPI for 10 min at room temperature.
(§4) For this type of quantification the freeware image analysis ImageJ® software was used. […]

[2] = test system: MG63 cells; assay: p53 protein expression level, immunofluorescence staining quantified with ImageJ, osteosarcoma cells; assay type: cell-based, human; parameters: P53: unit not given here; settings: for P53: Table 9, in association with SiRNA Integrin alpha 3+SiRNA Integrin beta 1 (SEQ ID NO: 141 to 163); for p53 (%): Table 4, cyclic GFR-binding peptide in association with SiRNA Integrin alpha 3 and SiRNA Integrin beta 1, 400 ng/mL, 24 hours
Procedure: as §1, §2, §3, §4

[3] = test system: human rhabdosarcoma cells; assay: p53 quantification, same procedure, rhabdosarcoma cells; assay type: cell-based; parameters: P53: unit not given here; settings: for P53: Table 9, in association with SiRNA Integrin alpha 3+RGDSPC+SiRNA Integrin beta 1+SiRNA Syndecan 1 (SEQ ID NO: 31, 32, 164 to 187)
Procedure: as §1, §2, §3, §4

[4] = test system: human rhabdosarcoma cells; assay: pRB quantification, same procedure, rhabdosarcoma cells; assay type: cell-based; settings: for pRB: Table 9, in association with SiRNA Integrin alpha 3+RGDSPC+SiRNA Integrin beta 1+SiRNA Syndecan 1 (SEQ ID NO: 31, 32, 164 to 187)
Procedure: as §1, §2, §3, §4

[5] = Table 7, human osteosarcoma cells, MG63, GFR-binding compound within pharmaceutical association
[6] = Table 4, MG63 cells, cyclic GFR-binding peptide in association with SiRNA Integrin alpha 3 and SiRNA Integrin beta 1, 400 ng/mL, 24 hours
[7] = Table 5, cyclic GFR-binding peptide in association with SiRNA Integrin alpha 3+RGDSPC+SiRNA Integrin beta 1+SiRNA Syndecan 1, 400 ng/mL
[8] = Table 8, in association with SiRNA Integrin alpha 3, v, 4 and SiRNA Integrin beta 1

In the case of “RNVQCRPTQLEPLPIVYYEIVRKKPEQLSNTLEDHLA [SEQ ID NO: 56] (Non-cyclic GFR-binding peptide)”, the “pRB (%)” value [1, 5] is reported as 21%.

“CRNVQCRPTQVQLSAISTLYLEIVRKKPLKNYQTLEDH (Non-cyclic GFR-binding peptide) [SEQ ID NO: 149]” was tested, and the P53 [2] was 35 and the pRB ([1]; MG63 cells) was 12.

With “CPKPSSAPTQLSAISTLYLDDSSNVILKNYQMIVVRA (Non-cyclic GFR-binding peptide) [SEQ ID NO: 159]” the P53 [2] was 44 and the pRB ([1]; MG63 cells) was 9.

In the case of “CPKPSSAPTQLNAISMLYFGGGGGGGLKKYRNMVVRA (Non-cyclic GFR-binding peptide) [SEQ ID NO: 151]”, the P53 [2] is reported as 39 and the pRB ([1]; MG63 cells) is reported as 9.

For “VPTAASAISILYLDAANNVVLKNYQAAVVEDKGVVTY (also: cyclic peptide) [SEQ ID NO: 38200]”, the “p53 (%)” value [2] was 41% and the “pRB (%)” value [1, 6] was 17%.

“VPTDDSATSTLYYDKGVVTYLRKHRDDEHSDKGVVTY (also: cyclic peptide) [SEQ ID NO: 38214]” was tested, and the “p53 (%)” value [2] was 48% and the “pRB (%)” value [1, 6] was 18%.

In the case of “APTLLNAISMLYFNDKQQIILKKYRLLVVRNDKQQII (also: cyclic, ring not given here) [SEQ ID NO: 38203]”, the “p53 (%)” value [2] is reported as 44% and the “pRB (%)” value [1, 6] is reported as 12%.

In the case of “CAVPKASSAPTKLSATSVLYYDSSNNVVLRKHRNMVVK (Non-cyclic GFR-binding peptide) [SEQ ID NO: 146]”, the P53 [2] is reported as 38 and the pRB ([1]; MG63 cells) is reported as 11.

“CASASPSSVSQDLSAISTLYLIGKTPKILKNYQMIVKSSKSS (Non-cyclic GFR-binding peptide) [SEQ ID NO: 143]” gave a P53 [2] of 37 and a pRB ([1]; MG63 cells) of 14.

In the case of “VPQAAEPLPMLYYDKGVVTYEQLSNAAVRSDKGVVTY (also: cyclic peptide) [SEQ ID NO: 38210]”, the “p53 (%)” value [2] is reported as 40% and the “pRB (%)” value [1, 6] is reported as 12%.

For “RNVQCRPTQLEPLPIVYYEIVRKKPEQLSNTLEDHLA [SEQ ID NO: 61] (Non-cyclic GFR-binding peptide)”, the “pRB (%)” value [1, 5] was 18%.

“ASASPSSVPQDLEPLTILYYVGRTPKVEQLSNMV (Non-cyclic GFR-binding peptide) [SEQ ID NO: 55]” was tested, and the “pRB (%)” value [1, 5] was 17%.

For “NDEGLECVPTEERPVQVRKIRIKPHQGQKKATVFLQHNK [SEQ ID NO: 54] (Non-cyclic GFR-binding peptide)”, the “pRB (%)” value [1, 5] was 12%.

For “NDEGLECVPTEERPVQVRKIRIKPHQGQKKATVFLQHNK [SEQ ID NO: 59] (Non-cyclic GFR-binding peptide)”, the “pRB (%)” value [1, 5] was 22%.

“KASSSRVKMSNITVQIMRIKPHQGQHIGEMSVVEEHASGSHDKGVVTY (not fully specified; also: cyclic, mode of cyclisation not given here) [SEQ ID NO: 38222]” was tested, and the “P53 (%)” value [3, 7] was 52% and the “pRB (%)” value [4, 7] was 15%.

In the case of “CTVPKPSSAPTQLSPISILYIDAANNVVYKQYEDMVVRA (Non-cyclic GFR-binding peptide) [SEQ ID NO: 187]”, the P53 [3] is reported as 42 and the pRB [4] is reported as 9.

For “VPTAAEPISMLYLDEYDKVVKFKYEAAAVS (Non-cyclic GFR-binding peptide) [SEQ ID NO: 129]”, the “P53 (%)” value [3, 8] was 42% and the “pRB (%)” value [4, 8] was 20%.

With “VPQAAEPLPMLYYDKGVVTYEQLSNAAVRS (Non-cyclic GFR-binding peptide) [SEQ ID NO: 133]” the “P53 (%)” value [3, 8] was 42% and the “pRB (%)” value [4, 8] was 7%.

“VPEAASSLSMLFFEIVRKKPIFLKVYPAATVE (Non-cyclic GFR-binding peptide) [SEQ ID NO: 124]” was tested, and the “P53 (%)” value [3, 8] was 37% and the “pRB (%)” value [4, 8] was 12%.

Sequence “CAAPASSSVPARLSPISILYIDAANNVVYKQYEDMVVE (Non-cyclic GFR-binding peptide) [SEQ ID NO: 182]” has a P53 [3] of 41 and a pRB [4] of 8.

In the case of “VPTVVSAISTLYLRIKPHQGQHLKNYQVVVVE (Non-cyclic GFR-binding peptide) [SEQ ID NO: 125]”, the “P53 (%)” value [3, 8] is reported as 42% and the “pRB (%)” value [4, 8] is reported as 9%.

“APTLLNAISMLYFNDKQQIILKKYRLLVVR (Non-cyclic GFR-binding peptide) [SEQ ID NO: 126]” was tested, and the “P53 (%)” value [3, 8] was 41% and the “pRB (%)” value [4, 8] was 8%.

“PTSSAPTDLRSVKMAKVEIVRKKPIFKEVQVDMVVKASGDKGVVTY (not fully specified; also: cyclic peptide) [SEQ ID NO: 38221]” was tested, and the “P53 (%)” value [3, 7] was 48% and the “pRB (%)” value [4, 7] was 11%.

In the case of “EPSSSRVRLEPLTTLYYGGGGGGGEQLSNVVEEHSKDKGVVTY (also: cyclic peptide, ring closure not given here) [SEQ ID NO: 38224]”, the “P53 (%)” value [3, 7] is reported as 46% and the “pRB (%)” value [4, 7] is reported as 8%.

For “APTGGSATSMLYYDKGVVTYLRKHRGGVVK (Non-cyclic GFR-binding peptide) [SEQ ID NO: 127]”, the “P53 (%)” value [3, 8] was 33% and the “pRB (%)” value [4, 8] was 16%.

In the case of “WWFWGKASSVPTELSPISTLYKDENEKVVLKYHYDMVVEGSGSR (Non-cyclic GFR-binding peptide) [SEQ ID NO: 170]”, the P53 [3] is reported as 44 and the pRB [4] is reported as 7.

For “VSQDLSAISTLYLKIVRKEPLKNYQEMVEE (Non-cyclic GFR-binding peptide) [SEQ ID NO: 58]”, the “pRB (%)” value [1, 5] was 19%.

For “CAAPASSSVPARLSPISLLYIDAANNVVYKQYEDM (Non-cyclic GFR-binding peptide) [SEQ ID NO: 183]”, the P53 [3] was 44 and the pRB [4] was 13.

With “GTPGPAPTQLSPISVLYKDDSSNVILKYHY (Non-cyclic GFR-binding peptide) [SEQ ID NO: 31]” the P53 [3] was 34 and the pRB [4] was 5.

Work on “GTPGPKASSVPTELSPISTLYKDENEKVVLKYHYDM (Non-cyclic GFR-binding peptide) [SEQ ID NO: 168]” yielded a P53 [3] of 51 and a pRB [4] of 13.

For “VPTMMSNITTQIMRIKPHQGQHIGEMSMMQHN (Non-cyclic GFR-binding peptide) [SEQ ID NO: 135]”, the “P53 (%)” value [3, 8] was 48% and the “pRB (%)” value [4, 8] was 16%.

“CAAPASSSVPARLSPISILYIDAANNVVYKQYEDMVVEASG (Non-cyclic GFR-binding peptide) [SEQ ID NO: 181]” was tested, and the P53 [3] was 45 and the pRB [4] was 9.

Sequence “CVPTEESNITMQIMRIKPHQGQHIGEMSFL (Non-cyclic GFR-binding peptide) [SEQ ID NO: 177]” has a P53 [3] of 43 and a pRB [4] of 8.
